Calls of active or inactive are those of the source. The rule behind the calls is not given here.
Experiments:
[1] = test system: MCF7; test: Cytotoxicity against human MCF7 cells assessed as decrease in cell viability after 5 days by celltiterGlo assay; format: functional, cell-based; settings: MCF7, 120 h
[2] = test system: Rattus norvegicus; test: Decrease in uterine wet weight of CD-IGS rat at 1 mg/kg, po qd followed 15 mins later administration of 0.1 mg/kg, po 17alpha-ethynylestradiol for 3 consecutive days; format: functional
[3] = test system: MCF7; test: Decrease in estrogen receptor alpha level in human MCF7 cells after 4 hrs by in-cell western assay; format: functional, cell-based; settings: MCF7, 4 h
[4] = test system: MCF7; test: Decrease in estrogen receptor alpha level in human MCF7 cells after 4 hrs by in-cell western assay relative to fulvestrant; format: functional; settings: MCF7, 4 h
[5] = Fraction unbound in CD-1 mouse plasma by equilibrium dialysis; format: ADME, cell-free
[6] = AUC in CD-1 mouse at 10 mg/kg, po; format: ADME, organism-based; settings: in vivo
[7] = test system: MCF7; test: Antitumor activity against human MCF7 cells xenografted in tamoxifen-resistant nu/nu mouse model implanted with 17beta-estradiol pellets assessed as tumor regression at 30 mg/kg qd for 4 weeks; format: functional, organism-based
[8] = test system: MCF7; test: Decrease in estrogen receptor alpha level in human MCF7 cells 2 to 10 uM after 4 hrs by in-cell western assay; format: functional; settings: MCF7, 4 h

Structure (SMILES)	IC50 [1] [µM]	inhibition (INH) [2] [%]	EC50 [3] [µM]	Emax [4] [%]	fraction unbound [5]	AUC [6] [ng·h/mL]	Activity [7]	Emax [8] [%]
N#Cc1cc(C(F)(F)F)ccc1/C(=C(\c1ccc(/C=C/C(=O)O)cc1)c1ccc2[nH]nc(F)c2c1)C1CCC1	0.0012	75	0.0004	94	0.014	14600	Active	–
CC/C(=C(/c1ccc(/C=C/C(=O)O)cc1)c1ccc2[nH]nc(C)c2c1)c1ccccc1	> 1	–	0.353	–	–	–	–	86
CC/C(=C(/c1ccc(/C=C/C(=O)O)cc1)c1cc2cn[nH]c2cc1C)c1ccccc1	0.468	–	0.272	–	–	–	–	84
O=C(O)/C=C/c1ccc(/C(=C(\c2ncc(C(F)(F)F)cc2Cl)C2CCC2)c2ccc3[nH]nc(F)c3c2)cc1	0.0044	77	0.0013	94	0.014	24300	Active	–
CC/C(=C(/c1ccc(/C=C/C(=O)O)cc1)c1cc2cn[nH]c2cc1F)c1ccccc1	0.047	–	0.064	–	–	–	–	96
CC/C(=C(/c1ccc(/C=C/C(=O)O)cc1)c1cc2cn[nH]c2cn1)c1ccccc1	0.442	–	0.384	–	–	–	–	88
CC/C(=C(/c1ccc(/C=C/C(=O)O)cc1)c1ccc2[nH]nc(Cl)c2c1)c1ccccc1	0.284	–	0.102	–	–	–	–	89

— ChEMBL document CHEMBL3632480, “Optimization of an indazole series of selective estrogen receptor degraders: Tumor regression in a tamoxifen-resistant breast cancer xenograft” (Bioorg Med Chem Lett, 2015)
